# How the values were obtained:
# [1] = tested on: Myzus persicae; experiment: Systemic action against Myzus persicae (roots in spray mixture); format: in vivo; conditions: systemic: pea seedling roots in 400 ppm spray mixture, 20° C., evaluation 3 to 7 days later, read-out: percentage reduction in the population (% activity)
# Description: (§1) Systemic action against Myzus persicae Pea seedlings are infested with Myzus persicae, then placed with their roots in a spray mixture comprising 400 ppm of test compound and then incubated at 20° C. Evaluation is made 3 to 7 days later. The percentage reduction in the population (% activity) is determined by comparing the number of dead aphids on the treated plants with that on untreated plants.
# [2] = tested on: Nilaparvata lugens; experiment: Action against Nilaparvata lugens (sprayed rice plants); format: in vivo; conditions: 504 h, 400 ppm spray on rice plants, larvae in the 2nd and 3rd stages, evaluation 21 days later, read-out: percentage reduction in the population (% activity)
# Description: (§2) Action against Nilaparvata lugens Rice plants are sprayed with an aqueous emulsion comprising 400 ppm of test compound. After the spray coating has dried, the rice plants are populated with Nilaparvata lugens larvae in the 2nd and 3rd stages. Evaluation is made 21 days later. The percentage reduction in the population (% activity) is determined by comparing the number of surviving plant hoppers on the treated plants with that on untreated plants.
# [3] = tested on: Ctenocephalides felis; experiment: Systemic action against Ctenocephalides felis (membrane blood feeding); format: in vivo; conditions: 50 ppm in blood, 37°, 20 adult fleas, evaluation 24 and 48 hours, read-out: percentage reduction in the population (% activity)
# Description: Systemic action against Ctenocephalides felis 20 adult fleas of the Ctenocephalides felis species are placed in a flat round cage closed on both sides with gauze. A vessel sealed on the underside with a parafilm membrane is placed on the cage. The vessel contains blood comprising 50 ppm of test compound and maintained at a constant 37°. The fleas ingest the blood through the membrane. Evaluation is made 24 and 48 hours after the start of the test. The percentage reduction in the population (% activity) is determined by comparing the number of dead Ctenocephalides felis fleas when treated blood is used with that when untreated blood is used. The blood is replaced by fresh treated blood 24 hours after treatment.
# [4] = tested on: Anthonomus grandis; experiment: Action against Anthonomus grandis (sprayed cotton plants); format: in vivo; conditions: 72 h, 400 ppm spray on young cotton plants, 10 adults, evaluation 3 days later, read-out: percentage reduction in the population and percentage reduction in feeding damage (% activity)
# Description: Action against Anthonomus […] Young cotton plants are sprayed with an aqueous emulsion comprising 400 ppm of test compound. After the spray coating has dried, the plants are populated with 10 Anthonomus grandis adults and placed in a plastics container. Evaluation is made 3 days later. The percentage reduction in the population and the percentage reduction in feeding damage (% activity) are determined by comparing the number of dead beetles and the feeding damage on the treated plants with that on untreated plants.
# [5] = tested on: Aphis craccivora; experiment: Action against Aphis craccivora (sprayed pea seedlings); format: in vivo; conditions: 400 ppm spray on infested pea seedlings, 20° C., evaluation 3 to 7 days later, read-out: percentage reduction in the population (% activity)
# Description: as §1, with “Action” for “Systemic action”, “Aphis craccivora” for “Myzus persicae”, “Aphis craccivora,” for “Myzus persicae,”, “sprayed” for “placed”, “with” for “with their roots in”, “Aphis craccivora individuals” for “aphids”
# [6] = tested on: Plutella xylostella; experiment: Action against Plutella xylostella caterpillars; format: in vivo; conditions: 72 h, 400 ppm spray on young cabbage plants, 10 caterpillars in the third stage, evaluation 3 days later, read-out: percentage reduction in the population and percentage reduction in feeding damage (% activity)
# Description: (§3) Action against Plutella xylostella caterpillars Young cabbage plants are sprayed with an aqueous emulsion comprising 400 ppm of test compound. After the spray coating has dried, the cabbage plants are populated with 10 Plutella xylostella caterpillars in the third stage and placed in a plastics container. Evaluation is made 3 days later. The percentage reduction in the population and the percentage reduction in feeding damage (% activity) are determined by comparing the number of dead caterpillars and the feeding damage on the treated plants with that on untreated plants.
# [7] = tested on: Myzus persicae; experiment: Action against Myzus persicae (sprayed pea seedlings); format: in vivo; conditions: 400 ppm spray on infested pea seedlings, 20°, evaluation 3 to 7 days later, read-out: percentage reduction in the population (% activity)
# Description: as §1, with “Action” for “Systemic action”, “sprayed” for “placed”, “with” for “with their roots in”, “20°.” for “20° C.”
# [8] = tested on: Nephotettix cincticeps; experiment: Action against Nephotettix cincticeps (sprayed rice plants); format: in vivo; conditions: 504 h, 400 ppm spray on rice plants, larvae in the 2nd and 3rd stages, evaluation 21 days later, read-out: percentage reduction in the population (% activity)
# Description: as §2, with “against Nephotettix cincticeps” for “against Nilaparvata lugens”, “the” for “the rice”, “with Nephotettix cincticeps” for “with Nilaparvata lugens”, “surviving leaf” for “surviving plant”
# [9] = tested on: Heliothis virescens; experiment: Action against Heliothis virescens (sprayed soybean plants); format: in vivo; conditions: 144 h, 400 ppm spray on young soybean plants, 10 caterpillars in the first stage, evaluation 6 days later, read-out: percentage reduction in the population and percentage reduction in feeding damage (% activity)
# Description: as §3, with “against Heliothis virescens” for “against Plutella xylostella caterpillars”, “Young soybean” for “Young cabbage”, “the” for “the cabbage”, “10 Heliothis virescens” for “10 Plutella xylostella”, “the first” for “the third”, “made 6” for “made 3”
# [10] = tested on: Diabrotica balteata; experiment: Action against Diabrotica balteata (sprayed maize seedlings); format: in vivo; conditions: 144 h, 400 ppm spray on maize seedlings, 10 larvae in the second stage, evaluation 6 days later, read-out: percentage reduction in the population (% activity)
# Description: Action against Diabrotica balteata Maize seedlings are sprayed with an aqueous emulsion comprising 400 ppm of test compound. After the spray coating has dried, the seedlings are populated with 10 Diabrotica balteata larvae in the second stage and placed in a plastics container. Evaluation is made 6 days later. The percentage reduction in the population (% activity) is determined by comparing the number of dead larvae on the treated plants with that on untreated plants.
melting point,Compound,inhibition at 400 ppm [1],inhibition at 400 ppm [2],inhibition at 50 ppm [3],inhibition at 400 ppm [4],inhibition at 400 ppm [5],inhibition at 400 ppm [6],inhibition at 400 ppm [7],inhibition at 400 ppm [8],inhibition at 400 ppm [9],inhibition at 400 ppm [10]
159 to 161 °C,"O=[N+]([O-])/C=C1\NCCC1Cc1ccc(Cl)nc1 (stereo not shown) [Compound 5.3, 3-(2-Chloropyrid-5-yl-methyl)2-nitromethylidene-pyrrolidine]",> 80%,> 80%,> 80%,> 80%,> 80%,> 80%,> 80%,> 80%,> 80%,
,"CN1CCC(Cc2ccc(Cl)nc2)/C1=C/[N+](=O)[O-] (stereo not shown) [Compound 5.4, 3-(2-Chloropyrid-5-yl-methyl)-1methyl-2-nitromethylidene-pyrrolidine]",> 80%,> 80%,,> 80%,,,> 80%,> 80%,,
,"CCN1CCC(Cc2ccc(Cl)nc2)/C1=C/[N+](=O)[O-] (stereo not shown) [Compound 5.5, 3-(2-Chloropyrid-5-yl-methyl)-1-ethyl-2-nitromethylidene-pyrrolidine]",,,,,,,,> 80%,,
179 to 181 °C,"O=[N+]([O-])C=C1NCCCC1Cc1ccc(Cl)nc1 (stereo not shown) [Compound 5.16, 3-(2-chloropyrid-5-yl-methyl)-2-nitromethylidene-piperidine]",,,,,,,> 80%,,,> 80%
